Ki data for 33 compounds are collected here from patent US11299461B2 (priority 2018, dated 2022).

This assay concerns the target LF 263-C catalytic domain (anthrax lethal factor) (Bacillus anthracis, UniProt P15917). Nature of the assay: biochemical.

The Ki is the dissociation constant of the complex between target and ligand, obtained from inhibition or displacement. A higher Ki goes with a looser hold on the target.

Sequence of LF 263-C catalytic domain (anthrax lethal factor) (P15917 296-809 limits assumed): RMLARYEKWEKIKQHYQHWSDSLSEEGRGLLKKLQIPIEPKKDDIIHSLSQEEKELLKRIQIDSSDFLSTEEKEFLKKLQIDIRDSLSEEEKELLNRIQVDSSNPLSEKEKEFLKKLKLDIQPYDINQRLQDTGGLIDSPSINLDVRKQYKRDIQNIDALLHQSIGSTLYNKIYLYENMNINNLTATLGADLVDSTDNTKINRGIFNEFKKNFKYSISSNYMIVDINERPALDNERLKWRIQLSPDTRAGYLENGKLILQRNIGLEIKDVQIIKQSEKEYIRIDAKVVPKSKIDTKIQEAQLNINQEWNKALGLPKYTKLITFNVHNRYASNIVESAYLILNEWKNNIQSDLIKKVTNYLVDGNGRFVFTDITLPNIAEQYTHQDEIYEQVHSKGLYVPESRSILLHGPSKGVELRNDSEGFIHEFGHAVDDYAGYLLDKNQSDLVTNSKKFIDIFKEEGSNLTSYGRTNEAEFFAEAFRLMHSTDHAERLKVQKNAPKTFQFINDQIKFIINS

With `Cc1ccc([C@@H](CO)NCCCC[C@@H](Nc2cc(C)c(F)c(C)c2)C(=O)NO)nc1` [Compound 1, (R)-2-((4-fluoro-3,5-dimethylphenyl)amino)-N-hydroxy-6-(((S)-2-hydroxy-1-(5-methylpyridin-2-yl)ethyl)amino)hexanamide], the Ki was 0.17 nM. `Cc1cc(N[C@H](CCCCN[C@H](CO)c2ccc(F)cn2)C(=O)NO)cc(C)c1F` [Compound 2, (R)-2-((4-fluoro-3,5-dimethylphenyl)amino)-6-(((S)-1-(5-fluoropyridin-2-yl)-2-hydroxyethyl)amino)-N-hydroxyhexanamide] had a Ki of 0.14 nM. For `Cc1cc(N[C@H](CCCCN[C@@H](c2ccc(F)cn2)C(C)C)C(=O)NO)cc(C)c1F` [Compound 3, (R)-2-((4-fluoro-3,5-dimethylphenyl)amino)-6-(((R)-1-(5-fluoropyridin-2-yl)-2-methylpropyl)amino)-N-hydroxyhexanamide] the value was 0.2 nM. The same measure for `Cc1cc(N[C@H](CCCCN[C@@H](c2ccc(Cl)cn2)C(C)C)C(=O)NO)cc(C)c1F` [Compound 4, (R)-6-(((R)-1-(5-chloropyridin-2-yl)-2-methylpropyl)amino)-2-((4-fluoro-3,5-dimethylphenyl)amino)-N-hydroxyhexanamide]: 0.45 nM. For `CC[C@@H](NCCCC[C@@H](Nc1cc(C)c(F)c(C)c1)C(=O)NO)c1ncc(F)cc1F` [Compound 5, (R)-6-(((R)-1-(3,5-difluoropyridin-2-yl)propyl)amino)-2-((4-fluoro-3,5-dimethylphenyl)amino)-N-hydroxyhexanamide] the value was 0.39 nM. Compound `Cc1cc(N[C@H](CCCCN[C@@H](c2ncc(F)cc2F)C(C)C)C(=O)NO)cc(C)c1F` [Compound 6, (R)-6-(((R)-1-(3,5-difluoropyridin-2-yl)-2-methylpropyl)amino)-2-((4-fluoro-3,5-dimethylphenyl)amino)-N-hydroxyhexanamide] displayed a Ki of 0.28 nM.

In the case of `Cc1cc(N[C@H](CCCCN[C@H](C)c2ccc(Cl)cn2)C(=O)NO)cc(C)c1F` [Compound 7, (R)-6-(((R)-1-(5-chloropyridin-2-yl)ethyl)amino)-2-((4-fluoro-3,5-dimethylphenyl)amino)-N-hydroxyhexanamide], the affinity corresponds to a Ki of 0.35 nM. The same measure for `CC[C@@H](NCCCC[C@@H](Nc1cc(C)c(F)c(C)c1)C(=O)NO)c1ccc(F)cn1` [Compound 8, (R)-2-((4-fluoro-3,5-dimethylphenyl)amino)-6-(((R)-1-(5-fluoropyridin-2-yl)propyl)amino)-N-hydroxyhexanamide]: 0.57 nM. The same measure for `Cc1cc(C[C@H](CCCCNCc2ccccn2)C(=O)NO)cc(C)c1F` [Compound 9, (S)-2-(4-fluoro-3,5-dimethylbenzyl)-N-hydroxy-6-((pyridin-2-ylmethyl)amino)hexanamide]: 1 nM. As to `Cc1cc(C[C@H](CCCCN[C@H](C)c2ccc(F)cn2)C(=O)NO)cc(C)c1F` [Compound 10, (S)-2-(4-fluoro-3,5-dimethylbenzyl)-6-(((R)-1-(5-fluoropyridin-2-yl)ethyl)amino)-N-hydroxyhexanamide], the Ki was determined as 0.15 nM. Consider `Cc1ccc([C@@H](C)NCCCC[C@@H](Cc2cc(C)c(F)c(C)c2)C(=O)NO)nc1` [Compound 11, (S)-2-(4-fluoro-3,5-dimethylbenzyl)-N-hydroxy-6-(((R)-1-(5-methylpyridin-2-yl)ethyl)amino)hexanamide], for which the Ki is 0.08 nM.

For `Cc1cc(C[C@H](CCCCN[C@H](CO)c2ccc(F)cn2)C(=O)NO)cc(C)c1F` [Compound 12, (S)-2-(4-fluoro-3,5-dimethylbenzyl)-6-(((S)-1-(5-fluoropyridin-2-yl)-2-hydroxyethyl)amino)-N-hydroxyhexanamide], the affinity, expressed as Ki, was 0.08 nM.

In turn, `Cc1ccc([C@@H](CO)NCCCC[C@@H](Cc2cc(C)c(F)c(C)c2)C(=O)NO)nc1` [Compound 13, (S)-2-(4-fluoro-3,5-dimethylbenzyl)-N-hydroxy-6-(((S)-2-hydroxy-1-(5-methylpyridin-2-yl)ethyl)amino)hexanamide] showed a Ki of 0.07 nM. For `Cc1cc(C[C@H](CCCCN[C@H](C)c2ccc(C(F)(F)F)cn2)C(=O)NO)cc(C)c1F` [Compound 14, (S)-2-(4-fluoro-3,5-dimethylbenzyl)-N-hydroxy-6-(((R)-1-(5-(trifluoromethyl)pyridin-2-yl)ethyl)amino)hexanamide], the Ki is 1.3 nM. As to `CCN(CCCC[C@@H](Cc1cc(C)c(F)c(C)c1)C(=O)NO)[C@H](C)c1ccc(C(F)(F)F)cn1` [Compound 15, (S)-6-(ethyl((R)-1-(5-(trifluoromethyl)pyridin-2-yl)ethyl)amino)-2-(4-fluoro-3,5-dimethylbenzyl)-N-hydroxyhexanamide], the affinity, expressed as Ki, was 3.6 nM. For `COc1ccc([C@@H](C)NCCCC[C@@H](Cc2cc(C)c(F)c(C)c2)C(=O)NO)nc1` [Compound 16, (S)-2-(4-fluoro-3,5-dimethylbenzyl)-N-hydroxy-6-(((R)-1-(5-methoxypyridin-2-yl)ethyl)amino)hexanamide] the value was 0.31 nM. The same measure for `CCN(CCCC[C@@H](Cc1cc(C)c(F)c(C)c1)C(=O)NO)[C@H](C)c1ccc(OC)cn1` [Compound 17, (S)-6-(ethyl((R)-1-(5-methoxypyridin-2-yl)ethyl)amino)-2-(4-fluoro-3,5-dimethylbenzyl)-N-hydroxyhexanamide]: 4.5 nM; for `Cc1cc(C[C@H](CCCCN(C)Cc2ccc(F)cn2)C(=O)NO)cc(C)c1F` [Compound 18, (S)-2-(4-fluoro-3,5-dimethylbenzyl)-6-(((5-fluoropyridin-2-yl)methyl)(methyl)amino)-N-hydroxyhexanamide]: 1.6 nM; for `COc1ccc(CN(C)CCCC[C@@H](Cc2cc(C)c(F)c(C)c2)C(=O)NO)nc1` [Compound 19, (S)-2-(4-fluoro-3,5-dimethylbenzyl)-N-hydroxy-6-(((5-methoxypyridin-2-yl)methyl)(methyl)amino)hexanamide]: 1.4 nM. For `Cc1cc(C[C@H](CCCCNC(C)(C)c2ccc(F)cn2)C(=O)NO)cc(C)c1F` [Compound 20, (S)-2-(4-fluoro-3,5-dimethylbenzyl)-6-((2-(5-fluoropyridin-2-yl)propan-2-yl)amino)-N-hydroxyhexanamide] the value was 0.19 nM; for `Cc1cc(C[C@H](CCCCN[C@@H](c2ccc(F)cn2)C(C)C)C(=O)NO)cc(C)c1F` [Compound 21, (S)-2-(4-fluoro-3,5-dimethylbenzyl)-6-(((R)-1-(5-fluoropyridin-2-yl)-2-methylpropyl)amino)-N-hydroxyhexanamide], 0.11 nM. On to `Cc1cc(C[C@H](CCCCN[C@@H](c2ccc(Cl)cn2)C(C)C)C(=O)NO)cc(C)c1F` [Compound 22, (S)-6-(((R)-1-(5-chloropyridin-2-yl)-2-methylpropyl)amino)-2-(4-fluoro-3,5-dimethylbenzyl)-N-hydroxyhexanamide], for which affinity was put at a Ki of 0.17 nM. The same measure for `Cc1cc(C[C@H](CCCCN[C@@H](c2ncc(F)cc2F)C(C)C)C(=O)NO)cc(C)c1F` [Compound 23, (S)-6-(((R)-1-(3,5-difluoropyridin-2-yl)-2-methylpropyl)amino)-2-(4-fluoro-3,5-dimethylbenzyl)-N-hydroxyhexanamide]: 0.25 nM; for `Cc1cc(C[C@H](CCCCN[C@@H](C)c2ccc(F)cn2)C(=O)NO)cc(C)c1F` [Compound 24, (S)-2-(4-fluoro-3,5-dimethylbenzyl)-6-(((S)-1-(5-fluoropyridin-2-yl)ethyl)amino)-N-hydroxyhexanamide]: 0.44 nM; for `CC[C@@H](NCCCC[C@@H](Cc1cc(C)c(F)c(C)c1)C(=O)NO)c1ncc(F)cc1F` [Compound 25, (S)-6-(((R)-1-(3,5-difluoropyridin-2-yl)propyl)amino)-2-(4-fluoro-3,5-dimethylbenzyl)-N-hydroxyhexanamide]: 0.12 nM. On to `Cc1cc(C[C@H](CCCCN[C@H](c2ccc(F)cn2)C(C)C)C(=O)NO)cc(C)c1F` [Compound 26, (S)-2-(4-fluoro-3,5-dimethylbenzyl)-6-(((S)-1-(5-fluoropyridin-2-yl)-2-methylpropyl)amino)-N-hydroxyhexanamide], for which the Ki is 0.87 nM. For `Cc1cc(C[C@H](CCCCN[C@H](C)c2ccc(Cl)cn2)C(=O)NO)cc(C)c1F` [Compound 27, (S)-6-(((R)-1-(5-chloropyridin-2-yl)ethyl)amino)-2-(4-fluoro-3,5-dimethylbenzyl)-N-hydroxyhexanamide] the value was 0.08 nM; for `CC[C@@H](NCCCC[C@@H](Cc1cc(C)c(F)c(C)c1)C(=O)NO)c1ccc(F)cn1` [Compound 28, (S)-2-(4-fluoro-3,5-dimethylbenzyl)-6-(((R)-1-(5-fluoropyridin-2-yl)propyl)amino)-N-hydroxyhexanamide], 0.08 nM. `Cc1cc(C[C@H](CCCCN(C)Cc2ccc(F)cn2)C(=O)NO)cc(Cl)c1F` [Compound 29, (S)-2-(3-chloro-4-fluoro-5-methylbenzyl)-6-(((5-fluoropyridin-2-yl)methyl)(methyl)amino)-N-hydroxyhexanamide] came in with a Ki of 1.1 nM. `Cc1cc(C[C@H](CCCCN[C@@H](c2ccc(F)cn2)C(C)C)C(=O)NO)cc(Cl)c1F` [Compound 30, (S)-2-(3-chloro-4-fluoro-5-methylbenzyl)-6-(((R)-1-(5-fluoropyridin-2-yl)-2-methylpropyl)amino)-N-hydroxyhexanamide] showed a Ki of 0.25 nM. For `Cc1cc(C[C@H](CCCCN[C@@H](c2ccc(Cl)cn2)C(C)C)C(=O)NO)cc(Cl)c1F` [Compound 31, (S)-2-(3-chloro-4-fluoro-5-methylbenzyl)-6-(((R)-1-(5-chloropyridin-2-yl)-2-methylpropyl)amino)-N-hydroxyhexanamide] the value was 0.26 nM; for `COc1ccc(CN(C)CCCC[C@@H](Cc2cc(C)c(F)c(Cl)c2)C(=O)NO)nc1` [Compound 32, (S)-2-(3-chloro-4-fluoro-5-methylbenzyl)-N-hydroxy-6-(((5-methoxypyridin-2-yl)methyl)(methyl)amino)hexanamide], 1.5 nM; for `CN(CCCC[C@@H](Cc1cc(Cl)c(F)c(Cl)c1)C(=O)NO)Cc1ccc(F)cn1` [Compound 33, (S)-2-(3,5-dichloro-4-fluorobenzyl)-6-(((5-fluoropyridin-2-yl)methyl)(methyl)amino)-N-hydroxyhexanamide], 1.6 nM.
